Literature values in patent publication US20130137635A1, “TRYPTOPHAN HYDROXYLASE INHIBITORS FOR THE TREATMENT OF METASTATIC BONE DISEASE” (LEXICON PHARMACEUTICALS, INC., priority 2010, published 2013).

Tests used:
[1] = test system: cholangiocarcinoma tumors; details: in vivo xenograft model of cholangiocarcinoma tumors; pCPA treatment
[2] = test system: carcinoid syndrome; details: patients; reported in the 1960's

Compound: N[C@@H](Cc1ccc(Cl)cc1)C(=O)O (racemic) [pCPA, para-chlorophenylalanine]
- tumor growth [1]: suppressed tumor growth
- effect on symptoms of carcinoid syndrome [2]: alleviated some of the symptoms of carcinoid syndrome
- side effects on administration [2]: unacceptable side effects
